Measured values: patent publication US12397026B2, “Dietary supplement” (SOCIÉTÉ DES PRODUITS NESTLÉ S.A., priority 2015, dated 2025)

Each substance was assayed on probiotic bacteria preblend (Lactobacillus rhamnosus GG1 and Bifidobacterium lactis BB12). Conditions: iron fortifying agent combined with probiotic bacteria.
Format: cell-based
Protocol: For practical reasons (accuracy in weighed amount), the amounts have been multiplied by 5.
Five preparations containing various iron fortifying agents and probiotic bacteria, and a control composition containing pro biotic bacteria and no iron fortifying agent were tested, as follows:
For each preparation, the required amount of iron fortificant was weighed. The iron fortificant was mixed with the specified amount of diluent TS+, i.e., a reconstitution solution with Tryptone, Sodium Chloride and Antifoam at 37° C. having the following composition:
The mixture was agitated until complete homogenization of the solution (3 min).
The probiotic bacteria preblend (PP036) was added and the mixture agitated for 1 min.
Each of the six preparations were analysed in triplicate.
Bacterial viability was determined immediately after preparation by plating of serial dilutions and subsequent counting of colony forming units. […] The principle of the method is the following: • Samples containing probiotics are weighed, rehydrated in a diluent (TS+) and homogenized by stomaching. • Serial decimal dilutions are performed in the same diluent (TS+) • 1 mL of each appropriate dilution is transferred to Petri dishes and mixed with a specific agar (pour-plate method) • The inoculated solidified agar plates are incubated under specific conditions enabling colony formation by the target bacteria (selective enumeration) • Colonies are counted and results are calculated and expressed in colony forming units per gram of sample (CFU/g).
In the case of ferric ammonium citrate, the “Effect on viability of probiotic bacteria (in words)” value (from here on “Effect on viability”) is reported as “caused a significant loss of bacteria viability”. In the case of ferric pyrophosphate, the “Effect on viability” value is reported as “does not decrease bacterial viability”. In the case of ferrous bisglycinate, the “Effect on viability” value is reported as “caused a significant loss of bacteria viability”. With ferrous sulfate the “Effect on viability” value was “caused a significant loss of bacteria viability”.
